Experimental data reported in patent US20260137697A1, “THIAZOLO[5,4-D]PYRIMIDINE COMPOUNDS, COMPOSITIONS COMPRISING THEM AND USES THEREOF” (University de Montreal, priority 2022, published 2026).

Each compound was assayed against T1, ARAF (Homo sapiens, UniProt P10398) (assay: ARAF kinase activity assay (AlphaLISA p-MEK 1/2)). Conditions: Table A; 10 μM ATP, kinase-dead MEK1 substrate.
T1 construct: ARAF kinase reactions were rigorously the same with the exception that kinase concentration was raised to 3.75 nM (cat. No. 1768-0000-1; Reaction Biology)
T1 sequence (P10398 303-606 limits assumed): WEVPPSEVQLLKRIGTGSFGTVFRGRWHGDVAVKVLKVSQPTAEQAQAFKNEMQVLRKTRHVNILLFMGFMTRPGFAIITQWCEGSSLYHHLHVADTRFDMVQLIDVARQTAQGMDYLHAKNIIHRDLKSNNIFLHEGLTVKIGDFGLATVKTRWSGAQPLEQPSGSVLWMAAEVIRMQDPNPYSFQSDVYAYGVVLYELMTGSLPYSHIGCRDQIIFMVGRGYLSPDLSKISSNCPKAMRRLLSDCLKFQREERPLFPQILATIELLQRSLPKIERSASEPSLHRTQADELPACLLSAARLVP
Type: biochemical
Protocol: Compound preparation: solid samples of each substance in 1dram vials were suspended in DMSO (Fisher Scientific) at a stock concentration of 20 mM. Stocks were kept at −20° C. and protected from light. If solubility of the compound at 20 mM appeared to be an issue, the initial concentration of the DMSO stock was changed to 10 mM or 5 mM.
In vitro enzymatic reactions were used for evaluating compounds intrinsic activity against BRAF, CRAF and ARAF. For BRAF and CRAF, 0.375 nM of purified GST-tagged kinases (cat. No. B4062-10UG and cat. No. R1656-10UG respectively from Millipore Sigma) were incubated with 75 nM of kinase-dead MEK1 substrate (cat. No. 40075; BPS Bioscience) in the presence of 10 μM of Ultrapure ATP (cat. No. V9102; Promega; part V915A) with and without the test compound in a buffer containing 50 mM HEPES pH 7.5, 10 mM MgCl2, 1 mM EDTA, 0.01% Brij-35 and 2 mM DTT. Separate reactions were performed with the MEK1 substrate and ATP as a blank control. ARAF kinase reactions were rigorously the same with the exception that kinase concentration was raised to 3.75 nM (cat. No. 1768-0000-1; Reaction Biology).
For compound treatment, 5 μL/well of test substance solution are placed in a 384-well proxyplate (Perkin Elmer) and mixed with 2× concentrated kinase reactions. The dilution series is selected so that nine concentrations cover a range from 100 nM to 0.01 nM. […] The final concentration of DMSO in the assay is set at 0.05%.
ARAF kinase reactions were carried out for a total of 2 hours at 30° C. and then stopped by addition of EDTA at a final concentration of 40 mM. Reactions were then detected using the AlphaLISA® SureFire® Ultra™ p-MEK 1/2 (Ser218/222) (PerkinElmer) kit. Reactions were performed with 5 μL of kinase reaction according to the manufacturer's specifications in 384-well proxyplates (Perkin Elmer) followed by overnight incubation of the AlphaLISA® reactions at room temperature in a humidified chamber. After completion of the detection reactions, the signals were recorded on a Synergy Neo2 plate reader (Biotek) equipped with AlphaLISA® filters. The effect of each compound dilution on the pMEK signal generated by ARAF reactions was expressed in % inhibition and calculated as follows. An internal 100% inhibition control (average of luminescence in kinase reactions comprising kinase dead MEK1 substrate alone) was included in each plate to measure of pMEK background and was subtracted from each data point. The average of DMSO (vehicle) controls (set as 0% inhibition) was also established and used to calculate % inhibition:
IC50 values were obtained by plotting the kinase inhibition values and fitting the dose-activity curves using a log(agonist) versus response—variable slope (four parameters) function using either GraphPadPrism (V7.0) or Dotmatics Screening Ultra platform. Standards included in the ARAF kinase assay were Belvarafenib (MedChem Express cat. No. HY-109080; CAS No. 1446113-23-0), LXH254 (MedChem Express cat. No. HY-112089; CAS No. 1800398-38-2) and BGB283 (cat. No. HY-18957; CAS No. 1446090-79-4).
`Cc1ccc2c(Nc3cccc(Cl)c3F)nccc2c1NC(=O)c1csc2c(N)ncnc12` [Belvarafenib, reference compound] was tested, and the IC50 was > 10 nM.
With `N#CC1(c2cccc3c2ncn3-c2nc3c(Nc4c(F)ccc(NS(=O)(=O)c5cccc(Cl)c5Cl)c4F)ncnc3s2)CC1` [Example 122] the IC50 was 1 to 10 nM.
For `Cc1c(F)cccc1S(=O)(=O)Nc1ccc(F)c(Nc2ncnc3sc(-n4cc(C(=O)N5C6CCC5CN(C)C6)c5ccccc54)nc23)c1F` [Example 44], the IC50 was 1 to 10 nM.
